Reference: patent EP0908457B1, “3-(1,2-benzisothiazol- and isoxazol-5-Y1)-2,4(1H,3H)-pyrimidinedione or thione and 3-(1,2-benzisothiazol- and isoxazol-5-y1)-4(3H)-pyrimidinone or thione herbicidal agents” (BASF AKTIENGESELLSCHAFT, priority 1997, dated 1999)

What was measured:
[1] = tested on: Sagittaria pygmaea, L.; test: Preemergence weed control under flooded paddy conditions, SAGPY (Arrowhead (Pygmaea)); format: in vivo; settings: preemergence, flooded paddy, rated three to four weeks after treatment; for herbicidal effect rating, SAGPY: meaning of each grade not given here
[2] = tested on: Monochoria vaginalis, Presl.; test: Preemergence weed control under flooded paddy conditions, MOOVA (Monochoria); format: in vivo; settings: preemergence, flooded paddy, rated three to four weeks after treatment; for herbicidal effect rating, MOOVA: meaning of each grade not given here
[3] = tested on: Echinochloa oryzoides (Ard.) Fritsch.; test: Preemergence weed control under flooded paddy conditions, ECHORC (Watergrass (Calif.)); format: in vivo; settings: preemergence, flooded paddy, rated three to four weeks after treatment; for herbicidal effect rating, ECHORC: meaning of each grade not given here
[4] = tested on: Oryza sativa, (L.) Tebonnet; test: Rice tolerance to post-transplant applications under flooded paddy conditions (Example 187), ORYSAT (Rice, Tebonnet); settings: rated three to four weeks after treatment; for herbicidal effect rating ORYSAT: meaning of each grade not given here
[5] = tested on: Cyperus serotinus, Rottb.; test: Preemergence weed control under flooded paddy conditions, CYPSE (Flatsedge); format: in vivo; settings: preemergence, rated three to four weeks after treatment; for herbicidal effect rating, CYPSE: meaning of each grade not given here
[6] = tested on: Cyperus iria; test: Preemergence weed control under flooded paddy conditions, CYPIR (Rice Flatsedge); format: in vivo; settings: preemergence, flooded paddy, rated three to four weeks after treatment; for herbicidal effect rating, CYPIR: meaning of each grade not given here

In the case of Cc1ccc(OCC(=O)OCCN(C)C)c(-c2nsc3ccc(-n4c(=O)cc(C(F)(F)F)n(C)c4=O)cc23)c1 [Example 70, 2-(Dimethylamino)ethyl {{2-{5-[3,6-dihydro-3-methyl-2,6-dioxo-4-(trifluoromethyl)-1(2H)-pyrimidinyl]-1,2-benzisothiazol-3-yl}-p-tolyl}oxy}acetate], the “herbicidal effect rating, SAGPY” value ([1]; 0.0313 kg/ha) was 0.0, the “herbicidal effect rating, SAGPY” value ([1]; 0.0625 kg/ha) was 0.0 and the “herbicidal effect rating, SAGPY” value ([1]; 0.1250 kg/ha) was 1.0. For the same compound, the “herbicidal effect rating, SAGPY” value ([1]; 0.2500 kg/ha) was 2.0, the “herbicidal effect rating, MOOVA” value ([2]; 0.0313 kg/ha) was 9.0 and the “herbicidal effect rating, MOOVA” value ([2]; 0.0625 kg/ha) was 9.0. The “herbicidal effect rating, MOOVA” value ([2]; 0.1250 kg/ha) was 9.0, the “herbicidal effect rating, MOOVA” value ([2]; 0.2500 kg/ha) was 9.0 and the “herbicidal effect rating, ECHORC” value ([3]; 0.0313 kg/ha) was 4.0. For the same compound, the “herbicidal effect rating, ECHORC” value ([3]; 0.0625 kg/ha) was 8.0, the “herbicidal effect rating, ECHORC” value ([3]; 0.1250 kg/ha) was 9.0 and the “herbicidal effect rating, ECHORC” value ([3]; 0.2500 kg/ha) was 9.0. The “herbicidal effect rating, ORYSAT (rice tolerance)” value (shortened to “herbicidal effect rating, ORYSAT”) ([4]; 0.0313 kg/ha) was 3.0, the “herbicidal effect rating, ORYSAT” value ([4]; 0.0625 kg/ha) was 4.5 and the “herbicidal effect rating, ORYSAT” value ([4]; 0.1250 kg/ha) was 6.0. For the same compound, the “herbicidal effect rating, ORYSAT” value ([4]; 0.2500 kg/ha) was 6.5, the “herbicidal effect rating, CYPSE” value ([5]; 0.0313 kg/ha) was 0.0 and the “herbicidal effect rating, CYPSE” value ([5]; 0.0625 kg/ha) was 0.0. The “herbicidal effect rating, CYPSE” value ([5]; 0.1250 kg/ha) was 0.0, the “herbicidal effect rating, CYPSE” value ([5]; 0.2500 kg/ha) was 0.0 and the “herbicidal effect rating, CYPIR” value ([6]; 0.0313 kg/ha) was 2.0. The “herbicidal effect rating, CYPIR” value ([6]; 0.0625 kg/ha) was 7.0, the “herbicidal effect rating, CYPIR” value ([6]; 0.1250 kg/ha) was 9.0 and the “herbicidal effect rating, CYPIR” value ([6]; 0.2500 kg/ha) was 9.0.
COC(=O)COc1cc(C)ccc1-c1nsc2cc(F)c(-n3c(=O)cc(C(F)(F)F)n(C)c3=O)cc12 [Example 479, Acetic acid, {{6-{5-[3,6-dihydro-3-methyl-2,6-dioxo-4-(trifluoromethyl)-1(2H)-pyrimidinyl]-6-fluoro-1,2-benzisothiazol-3-yl}-m-tolyl}oxy}-, methyl ester] was tested, and the SAGPY herbicidal rating ([1]; 0.0320 kg/ha) was 3.0, the SAGPY herbicidal rating ([1]; 0.0620 kg/ha) was 5.0 and the SAGPY herbicidal rating ([1]; 0.1250 kg/ha) was 6.0. It also gave an SAGPY herbicidal rating ([1]; 0.2500 kg/ha) of 8.0, an MOOVA herbicidal rating ([2]; 0.0320 kg/ha) of 0.0 and an MOOVA herbicidal rating ([2]; 0.0620 kg/ha) of 7.0. For the same compound, the MOOVA herbicidal rating ([2]; 0.1250 kg/ha) was 9.0, the MOOVA herbicidal rating ([2]; 0.2500 kg/ha) was 9.0 and the ECHORC herbicidal rating ([3]; 0.0320 kg/ha) was 7.0. For the same compound, the ECHORC herbicidal rating ([3]; 0.0620 kg/ha) was 7.0, the ECHORC herbicidal rating ([3]; 0.1250 kg/ha) was 9.0 and the ECHORC herbicidal rating ([3]; 0.2500 kg/ha) was 9.0. For the same compound, the “ORYSAT herbicidal rating (rice tolerance)” value (from here on “ORYSAT herbicidal rating”) ([4]; 0.0320 kg/ha) was 5.0, the “ORYSAT herbicidal rating” value ([4]; 0.0620 kg/ha) was 5.0 and the “ORYSAT herbicidal rating” value ([4]; 0.1250 kg/ha) was 9.0. For the same compound, the “ORYSAT herbicidal rating” value ([4]; 0.2500 kg/ha) was 9.0, the CYPSE herbicidal rating ([5]; 0.0320 kg/ha) was 0.0 and the CYPSE herbicidal rating ([5]; 0.0620 kg/ha) was 7.0. It also gave a CYPSE herbicidal rating ([5]; 0.1250 kg/ha) of 9.0, a CYPSE herbicidal rating ([5]; 0.2500 kg/ha) of 9.0 and a CYPIR herbicidal rating ([6]; 0.0320 kg/ha) of 0.0. It also gave a CYPIR herbicidal rating ([6]; 0.0620 kg/ha) of 0.0, a CYPIR herbicidal rating ([6]; 0.1250 kg/ha) of 5.0 and a CYPIR herbicidal rating ([6]; 0.2500 kg/ha) of 9.0.
For Cn1c(C(F)(F)F)cc(=O)n(-c2ccc3snc(CSCC(=O)O)c3c2)c1=O [Example 283, Acetic acid, {{{5-[3,6-dihydro-3-methyl-2,6-dioxo-4-(trifluoromethyl)-1(2H)-pyrimidinyl]-1,2-benzisothiazol-3-yl}methyl}thio}-], the “SAGPY herbicidal effect rating” value ([1]; Rate 0.0320 kg/ha) was 0.0, the “SAGPY herbicidal effect rating” value ([1]; Rate 0.0620 kg/ha) was 0.0 and the “SAGPY herbicidal effect rating” value ([1]; Rate 0.1250 kg/ha) was 0.0. The “SAGPY herbicidal effect rating” value ([1]; Rate 0.5000 kg/ha) was 9.0, the “MOOVA herbicidal effect rating” value ([2]; Rate 0.0320 kg/ha) was 2.0 and the “MOOVA herbicidal effect rating” value ([2]; Rate 0.0620 kg/ha) was 8.0. The “MOOVA herbicidal effect rating” value ([2]; Rate 0.1250 kg/ha) was 9.0, the “MOOVA herbicidal effect rating” value ([2]; Rate 0.2500 kg/ha) was 9.0 and the “MOOVA herbicidal effect rating” value ([2]; Rate 0.5000 kg/ha) was 9.0. For the same compound, the “ECHORC herbicidal effect rating” value ([3]; Rate 0.0320 kg/ha) was 0.0, the “ECHORC herbicidal effect rating” value ([3]; Rate 0.0620 kg/ha) was 3.4 and the “ECHORC herbicidal effect rating” value ([3]; Rate 0.1250 kg/ha) was 3.4. The “ECHORC herbicidal effect rating” value ([3]; Rate 0.2500 kg/ha) was 6.0, the “ECHORC herbicidal effect rating” value ([3]; Rate 0.5000 kg/ha) was 6.0 and the “ORYSAT herbicidal effect rating” value ([4]; Rate 0.0320 kg/ha) was 2.0. For the same compound, the “ORYSAT herbicidal effect rating” value ([4]; Rate 0.0620 kg/ha) was 2.0, the “ORYSAT herbicidal effect rating” value ([4]; Rate 0.1250 kg/ha) was 4.0 and the “ORYSAT herbicidal effect rating” value ([4]; Rate 0.2500 kg/ha) was 5.0. For the same compound, the “ORYSAT herbicidal effect rating” value ([4]; Rate 0.5000 kg/ha) was 4.0, the “CYPSE herbicidal effect rating” value ([5]; Rate 0.5000 kg/ha) was 0.0 and the “CYPIR herbicidal effect rating” value ([6]; Rate 0.0320 kg/ha) was 0.0. The “CYPIR herbicidal effect rating” value ([6]; Rate 0.0620 kg/ha) was 4.0, the “CYPIR herbicidal effect rating” value ([6]; Rate 0.1250 kg/ha) was 8.0 and the “CYPIR herbicidal effect rating” value ([6]; Rate 0.2500 kg/ha) was 9.0. For the same compound, the “CYPIR herbicidal effect rating” value ([6]; Rate 0.5000 kg/ha) was 9.0.
C=C(C(=O)OC)C(C)OCc1nsc2ccc(-n3c(=O)cc(C(F)(F)F)n(C)c3=O)cc12 (stereo not shown) [Example 212, Methyl 3-{{5-[3,6-dihydro-3-methyl-2,6-dioxo-4-(trifluoromethyl)-1(2H)-pyrimidinyl]-1,2-benzisothiazol-3-yl}methoxy}-2-methylenebutyrate] was tested, and the “SAGPY herbicidal effect rating” value ([1]; Rate 0.0313 kg/ha) was 0.0, the “SAGPY herbicidal effect rating” value ([1]; Rate 0.0625 kg/ha) was 0.0 and the “SAGPY herbicidal effect rating” value ([1]; Rate 0.1250 kg/ha) was 0.0. The “SAGPY herbicidal effect rating” value ([1]; Rate 0.2500 kg/ha) was 0.0, the “MOOVA herbicidal effect rating” value ([2]; Rate 0.0313 kg/ha) was 4.0 and the “MOOVA herbicidal effect rating” value ([2]; Rate 0.0625 kg/ha) was 8.0. The “MOOVA herbicidal effect rating” value ([2]; Rate 0.1250 kg/ha) was 9.0, the “MOOVA herbicidal effect rating” value ([2]; Rate 0.2500 kg/ha) was 9.0 and the “ECHORC herbicidal effect rating” value ([3]; Rate 0.0313 kg/ha) was 0.0. The “ECHORC herbicidal effect rating” value ([3]; Rate 0.0625 kg/ha) was 0.0, the “ECHORC herbicidal effect rating” value ([3]; Rate 0.1250 kg/ha) was 2.0 and the “ECHORC herbicidal effect rating” value ([3]; Rate 0.2500 kg/ha) was 4.0. For the same compound, the “ORYSAT herbicidal effect rating” value ([4]; Rate 0.0313 kg/ha) was 3.0, the “ORYSAT herbicidal effect rating” value ([4]; Rate 0.0625 kg/ha) was 4.0 and the “ORYSAT herbicidal effect rating” value ([4]; Rate 0.1250 kg/ha) was 6.0. For the same compound, the “ORYSAT herbicidal effect rating” value ([4]; Rate 0.2500 kg/ha) was 7.0, the “CYPSE herbicidal effect rating” value ([5]; Rate 0.0313 kg/ha) was 0.0 and the “CYPSE herbicidal effect rating” value ([5]; Rate 0.0625 kg/ha) was 0.0. For the same compound, the “CYPSE herbicidal effect rating” value ([5]; Rate 0.1250 kg/ha) was 0.0, the “CYPSE herbicidal effect rating” value ([5]; Rate 0.2500 kg/ha) was 0.0 and the “CYPIR herbicidal effect rating” value ([6]; Rate 0.0313 kg/ha) was 0.0. For the same compound, the “CYPIR herbicidal effect rating” value ([6]; Rate 0.0625 kg/ha) was 0.0, the “CYPIR herbicidal effect rating” value ([6]; Rate 0.1250 kg/ha) was 0.0 and the “CYPIR herbicidal effect rating” value ([6]; Rate 0.2500 kg/ha) was 2.0.
With Cc1nsc2cc(F)c(-n3c(=O)cc(C(F)(F)F)n(C)c3=O)cc12 [Example 366, 2,4(1H,3H)-Pyrimidinedione, 3-(6-fluoro-3-methyl-1,2-benzisothiazol-5-yl)-1-methyl-6-(trifluoromethyl)-] the “herbicidal effect rating, SAGPY” value ([1]; Rate 0.0320 kg/ha) was 7.0, the “herbicidal effect rating, SAGPY” value ([1]; Rate 0.0620 kg/ha) was 8.0 and the “herbicidal effect rating, SAGPY” value ([1]; Rate 0.1250 kg/ha) was 9.0. The “herbicidal effect rating, SAGPY” value ([1]; Rate 0.2500 kg/ha) was 9.0, the “herbicidal effect rating, SAGPY” value ([1]; Rate 0.5000 kg/ha) was 9.0 and the “herbicidal effect rating, MOOVA” value ([2]; Rate 0.0320 kg/ha) was 9.0. The “herbicidal effect rating, MOOVA” value ([2]; Rate 0.0620 kg/ha) was 9.0, the “herbicidal effect rating, MOOVA” value ([2]; Rate 0.1250 kg/ha) was 9.0 and the “herbicidal effect rating, MOOVA” value ([2]; Rate 0.2500 kg/ha) was 9.0. For the same compound, the “herbicidal effect rating, MOOVA” value ([2]; Rate 0.5000 kg/ha) was 9.0, the “herbicidal effect rating, ECHORC” value ([3]; Rate 0.0320 kg/ha) was 8.0 and the “herbicidal effect rating, ECHORC” value ([3]; Rate 0.0620 kg/ha) was 8.5. The “herbicidal effect rating, ECHORC” value ([3]; Rate 0.1250 kg/ha) was 9.0, the “herbicidal effect rating, ECHORC” value ([3]; Rate 0.2500 kg/ha) was 9.0 and the “herbicidal effect rating, ECHORC” value ([3]; Rate 0.5000 kg/ha) was 9.0. For the same compound, the “herbicidal effect rating ORYSAT” value ([4]; Rate 0.0320 kg/ha) was 7.5, the “herbicidal effect rating ORYSAT” value ([4]; Rate 0.0620 kg/ha) was 9.0 and the “herbicidal effect rating ORYSAT” value ([4]; Rate 0.1250 kg/ha) was 9.0. For the same compound, the “herbicidal effect rating ORYSAT” value ([4]; Rate 0.2500 kg/ha) was 9.0, the “herbicidal effect rating ORYSAT” value ([4]; Rate 0.5000 kg/ha) was 9.0 and the “herbicidal effect rating, CYPSE” value ([5]; Rate 0.0320 kg/ha) was 8.0. For the same compound, the “herbicidal effect rating, CYPSE” value ([5]; Rate 0.0620 kg/ha) was 8.0, the “herbicidal effect rating, CYPSE” value ([5]; Rate 0.1250 kg/ha) was 9.0 and the “herbicidal effect rating, CYPSE” value ([5]; Rate 0.2500 kg/ha) was 9.0. The “herbicidal effect rating, CYPSE” value ([5]; Rate 0.5000 kg/ha) was 9.0, the “herbicidal effect rating, CYPIR” value ([6]; Rate 0.0320 kg/ha) was 8.5 and the “herbicidal effect rating, CYPIR” value ([6]; Rate 0.0620 kg/ha) was 9.0. The “herbicidal effect rating, CYPIR” value ([6]; Rate 0.1250 kg/ha) was 9.0, the “herbicidal effect rating, CYPIR” value ([6]; Rate 0.2500 kg/ha) was 9.0 and the “herbicidal effect rating, CYPIR” value ([6]; Rate 0.5000 kg/ha) was 9.0.
